Where “and” joins values, the source holds several entries; their conditions need not be identical. Identical values can stand only once.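 Results reflect a 48-hour exposure of cells in 96-well plates to compound at five concentrations. The concentration for 50% growth inhibition is given as GI50. TGI: concentration producing complete growth inhibition.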

Common to all, as to assay: DTP human tumour cell line panel, 48 h
For experiment [1], the system named is A498 renal.
Experiment [2] concerns HCT-15 colon.
Experiment [3] deals with M14 melanoma.
Experiment [4] deals with NCI-H522 lung.
Experiment [5] relates to SK-MEL-2 melanoma.
In experiment [6] the test system is SN12C renal.
The subject of experiment [7] is SNB-19 CNS.
Experiment [8] concerns SNB-75 CNS.
The subject of experiment [9] is SR leukemia.
For experiment [10], the system named is UACC-62 melanoma.

Turning to `COc1ccc(C(=O)/C=C/c2ccc(O)c(O)c2F)c(OC)c1`, the GI50 in [1] was 10.5 µM; in experiment [2], 0.444 µM; in experiment [4], 0.481 µM; in [6], 2.42 µM; in [7], 10.7 µM; in experiment [8] it was 4.53 µM. Moreover, the 50% growth inhibitory concentration (GI50) in [9] was 0.072 µM. Further, the total growth inhibition concentration (TGI) was 21.3 µM and 30.6 µM in experiment [1]; 13.8 µM and 29.3 µM in experiment [2]; 16.7 µM and 28 µM in experiment [3]; 5.56 µM and 3.18 µM in experiment [4]; 13.4 µM and 13.6 µM in [5]; 18.6 µM and 11.9 µM in experiment [6]. The TGI is 19 µM and 26.1 µM in experiment [7]; 40.3 µM and 18.9 µM in experiment [8]; 16.8 µM and 21.9 µM in [10].

With `CN(C)CCCCN1CCc2c(n(C)c3ccccc23)C1=O`, the GI50 was > 59 µM and 19.9 µM in experiment [1]; 53.3 µM and 12.7 µM in experiment [9]. The TGI in experiment [1] is > 85.1 µM and 49 µM; in experiment [2], 54.9 µM and 58.3 µM; in [3] it was 36.8 µM and 34 µM; in [4] it was > 82 µM; in experiment [5], 50.2 µM and 35.9 µM; in experiment [6], > 90.1 µM and 98 µM. The TGI was > 100 µM in experiment [7]; 71.3 µM and 60.8 µM in [8]; > 100 µM and 35.9 µM in experiment [9]; 54.3 µM and 31.8 µM in experiment [10].

For `CCC1=C(C)/C(=C/c2[nH]c(C)c(C(=O)CCCCC(=O)OC)c2C)N=C1c1ccc[nH]1`, the GI50 in [1] was 23.9 µM; in experiment [2] it was 15.4 µM; in [3], 18.7 µM; in experiment [4], 2.36 µM; in experiment [5], 19.4 µM; in experiment [6], 22.2 µM. Further, the GI50 in [7] is 15.1 µM; in [8], 12.2 µM; in experiment [9], 1.3 µM; in experiment [10], 8.7 µM. Also, the TGI is 59.5 µM in experiment [1]; 66.8 µM in experiment [2]; 58.8 µM in experiment [3]; 6.37 µM in experiment [4]; 46.2 µM in experiment [5]; > 100 µM in experiment [6]. The TGI in experiment [7] was 38.4 µM; in experiment [8], 27 µM; in experiment [9], 5.49 µM; in [10], 38.9 µM.

For `COc1ccc(C(=O)Cn2c(C(=O)c3ccc(OC)cc3)nc3ccccc32)cc1`, the GI50 is 1.64 µM in experiment [1]; 1.21 µM in experiment [2]; 1.59 µM in experiment [3]; 2.19 µM in experiment [4]; 12.6 µM in experiment [5]; > 92.9 µM in experiment [6]. For the same compound, the GI50 in experiment [7] was 4.37 µM; in experiment [8], 2.16 µM; in experiment [9] it was 0.557 µM; in [10], 3.47 µM. Moreover, the concentration for total growth inhibition (TGI) in experiment [1], in experiment [2], in experiment [3], in experiment [4], in experiment [5] and in experiment [6] was > 100 µM in each case. The TGI in [7] was > 100 µM; in experiment [8] it was > 54.3 µM; in experiment [10], > 100 µM.

Regarding `Cc1cc2c(cc1C)NC(=O)C(NC(=O)/C=C/c1ccccc1)C=N2` (stereo unspecified), the TGI in experiment [1] is > 100 µM; in experiment [2], 40.4 µM; in experiment [3], > 100 µM; in [4], 66 µM; in experiment [5] it was 84.4 µM; in experiment [6] it was > 100 µM. Also, the TGI was > 100 µM in experiment [7], > 100 µM in experiment [8], 58 µM in experiment [9] and > 100 µM in experiment [10].

As to `CCn1c(=O)c(-c2ccn[nH]2)cc2c(C)nc(N)nc21`, the GI50 is 0.209 µM in experiment [1]; 2.08 µM in [2]; 1.23 µM in experiment [3]; 1.5 µM in [4]; 2.25 µM in [5]; 1.4 µM in [6]. Moreover, the GI50 in [7] is 4.57 µM; in experiment [8], 0.182 µM; in experiment [9] it was 1.64 µM; in experiment [10], 0.687 µM. Also, the TGI is 0.726 µM in [1]; > 100 µM in [2]; 30.6 µM in experiment [3]; > 100 µM in experiment [4]; 9.58 µM in [5]; > 100 µM in [6]. The concentration for total growth inhibition (TGI) is > 100 µM in [7], 2.49 µM in [8], > 100 µM in [9] and 3.54 µM in [10].

In the case of `COc1cccc(N2C(=O)c3c(c4[nH]c5ccccc5c4c4ccc(C(C)(C)C)cc34)C2=O)c1`, the TGI in [1], in experiment [2], in experiment [3], in experiment [4], in experiment [5] and in experiment [6] was > 100 µM in each case. Besides, the TGI in experiment [7], in experiment [8], in experiment [9] and in [10] was > 100 µM throughout.

On to `Nc1c(C(=O)Nc2ccccc2)sc2nc3c(cc12)CCCCCC3`, for which the GI50 in experiment [1] is 0.248 µM; in experiment [2], 0.314 µM; in experiment [3], 0.233 µM; in experiment [4], 0.271 µM; in experiment [5], 0.857 µM; in experiment [6], 1.57 µM. Moreover, the GI50 was 0.476 µM in experiment [7], 0.241 µM in [8], 0.138 µM in experiment [9] and 0.428 µM in [10]. Also, the total growth inhibition concentration (TGI) in experiment [1] worked out at 1.31 µM; in [2], 14 µM; in experiment [3], 3.15 µM; in experiment [4], 1.29 µM; in experiment [5], 8.89 µM; in experiment [6], 60.2 µM. In addition, the total growth inhibition concentration (TGI) in experiment [7] was 24.9 µM; in experiment [8], 0.898 µM; in [9], 30.9 µM; in experiment [10], 12.9 µM.

With `CNc1ccccc1C(=O)N/N=C/C=C/c1ccccc1`, the concentration for 50% growth inhibition (GI50) was 0.39 µM in [1]; 0.457 µM in [2]; 0.6 µM in experiment [3]; 0.565 µM in experiment [4]; 0.733 µM in experiment [5]; 3.22 µM in experiment [6]. For the same compound, the GI50 was 7.01 µM in experiment [7], 0.673 µM in experiment [8], 0.402 µM in experiment [9] and 0.816 µM in experiment [10]. Besides, the total growth inhibition concentration (TGI) was 5.81 µM in experiment [1]; > 74.1 µM in experiment [2]; 24.8 µM in experiment [3]; 11.3 µM in [4]; 78.2 µM in experiment [5]; > 100 µM in experiment [6]. The results for the TGI in experiment [7], in experiment [9] and in experiment [10] were > 100 µM, > 88.8 µM and 32.7 µM, respectively.

What is called GI50 is the concentration that inhibits growth by half. The TGI is the concentration giving total growth inhibition. Low readings indicate more potent growth arrest, high ones less potent growth arrest.
